# Measured values reported in patent US20150164895A1, “DETERMINING SENSITIVITY OF CELLS TO B-RAF INHIBITOR TREATMENT BY DETECTING KRAS MUTATION AND RTK EXPRESSION LEVELS” (GENENTECH, INC., priority 2009, published 2015).
# “And” between values parts separate entries of the source, which are not always exact repeats. Equal entries are not always repeated.
# Test system: lung tumor xenografts
# Assay: Experiment H327: growth in lung tumor xenografts after dosing with B-RAF inhibitor
# Type: in vivo, mice
# Details: for Absolute body weight / Relative body weight / Survival time: individual animal; for Relative tumor volume / Absolute tumor volume: (a*b*b)/2: individual tumor
# Description: FIGS. 10-18 depict growth in lung tumor xenografts after dosing with GDC-0879.
# The data are shown below, and in FIGS. 10-14 for Experiment H331 and FIGS. 15-18 for Experiment H327.
# [1] = H327-2, LXFA 1041/9N4, 100 mg/kg/day po Days 0-20, study day 3, group median n 10
# [2] = H327-2, LXFA 1041/9N4, 100 mg/kg/day po Days 0-20, study day 3, group median n 20
# [3] = H327-2, LXFA 1041/9N4, 100 mg/kg/day po Days 0-20, study day 3, listed as G-026887
# [4] = H327-2, LXFA 1041/9N4, 100 mg/kg/day po Days 0-20, study day 7, group median n 10
# [5] = H327-2, LXFA 1041/9N4, 100 mg/kg/day po Days 0-20, study day 7, group median n 20
# [6] = H327-2, LXFA 1041/9N4, 100 mg/kg/day po Days 0-20, study day 7, listed as G-026887
# [7] = H327-2, LXFA 1041/9N4, 100 mg/kg/day po Days 0-20, study day 10, group median n 10
# [8] = H327-2, LXFA 1041/9N4, 100 mg/kg/day po Days 0-20, study day 10, group median n 20
# [9] = H327-2, LXFA 1041/9N4, 100 mg/kg/day po Days 0-20, study day 10, listed as G-026887
# [10] = H327-2, LXFA 1041/9N4, 100 mg/kg/day po Days 0-20, study day 14, group median n 10
# [11] = H327-2, LXFA 1041/9N4, 100 mg/kg/day po Days 0-20, study day 14, group median n 20
# [12] = H327-2, LXFA 1041/9N4, 100 mg/kg/day po Days 0-20, study day 14, listed as G-026887
# [13] = H327-2, LXFA 1041/9N4, 100 mg/kg/day po Days 0-20, study day 17, group median n 10
# [14] = H327-2, LXFA 1041/9N4, 100 mg/kg/day po Days 0-20, study day 17, group median n 20
# [15] = H327-2, LXFA 1041/9N4, 100 mg/kg/day po Days 0-20, study day 17, listed as G-026887
# [16] = H327-2, LXFA 1041/9N4, 100 mg/kg/day po Days 0-20, study day 20, group median n 10
# [17] = H327-2, LXFA 1041/9N4, 100 mg/kg/day po Days 0-20, study day 20, group median n 20
# [18] = H327-2, LXFA 1041/9N4, 100 mg/kg/day po Days 0-20, study day 20, listed as G-026887
# [19] = H327-5, LXFA 1041/9N4, 100 mg/kg/day po Day 0, study day 0, group median n 6
# [20] = H327-5, LXFA 1041/9N4, 100 mg/kg/day po Day 0, study day 0, listed as G-026887
# [21] = H327-6, LXFA 1041/9N4, 100 mg/kg/day po Day 0, study day 0, group median n 3
# [22] = H327-6, LXFA 1041/9N4, 100 mg/kg/day po Day 0, study day 0, listed as G-026887
smiles,measurement,setting,value
"OCCn1cc(-c2ccc3c(c2)CC/C3=N\O)c(-c2ccncc2)n1 [GDC-0879, 2-{4-[(1E)-1-(hydroxyimino)-2,3-dihydro-1H-inden-5-yl]-3-(pyridine-4-yl)-1H-pyrazol-1-yl}ethan-1-ol]",Absolute body weight,"H327-2, LXFA 1041/9N4, 100 mg/kg/day po Days 0-20, study day 0, listed as G-026887",25.4 g and 28.6 g and 24.5 g (2×) and 24.0 g and 25.1 g and 29.8 g and 31.5 g and 25.0 g and 23.6 g
same,Relative tumor volume,"H327-2, LXFA 1041/9N4, 100 mg/kg/day po Days 0-20, study day 0",100.0%
same,"Absolute body weight, Median",[1],25.3 g
same,"Relative body weight, Median",[1],99.2%
same,"Absolute tumor volume: (a*b*b)/2, Median",[2],139.8 mm3
same,"Relative tumor volume, Median",[2],165.4%
same,Absolute body weight,[3],25.6 g and 29.4 g and 24.6 g and 23.8 g and 23.6 g and 25.1 g and 29.3 g and 30.4 g and 25.4 g and 22.9 g
same,Relative body weight,[3],100.8% and 102.8% and 100.4% and 97.1% and 98.3% (2×) and 100.0% and 96.5% and 101.6% and 97.0%
same,Relative tumor volume,[3],193.9% and 208.9% and 154.7% and 187.7% and 202.6% and 157.6% and 110.0% and 160.2% and 138.1% and 194.2% and 138.9% and 172.0% and 178.9% and 185.0% and 157.3%
same,"Absolute body weight, Median",[4],25.7 g
same,"Relative body weight, Median",[4],101.4%
same,"Absolute tumor volume: (a*b*b)/2, Median",[5],228.0 mm3
same,"Relative tumor volume, Median",[5],258.8%
same,Absolute body weight,[6],25.9 g and 30.9 g and 25.2 g and 24.3 g and 24.4 g and 25.4 g and 29.8 g and 30.5 g and 26.3 g and 22.6 g
same,Relative body weight,[6],102.0% and 108.0% and 102.9% and 99.2% and 101.7% and 101.2% and 100.0% and 96.8% and 105.2% and 95.8%
same,Relative tumor volume,[6],452.1% and 329.8% and 300.6% and 260.9% and 376.4% and 256.7% and 340.1% and 324.4% and 232.6% and 248.9% and 223.2% and 293.8% and 281.8% and 209.2%
same,"Absolute body weight, Median",[7],25.5 g
same,"Relative body weight, Median",[7],100.5%
same,"Absolute tumor volume: (a*b*b)/2, Median",[8],305.5 mm3
same,"Relative tumor volume, Median",[8],388.4%
same,Absolute body weight,[9],25.5 g (2×) and 30.4 g and 24.9 g and 24.3 g and 23.8 g and 30.0 g and 30.6 g and 26.1 g and 22.0 g
same,Relative body weight,[9],100.4% and 106.3% and 101.6% (2×) and 99.2% (2×) and 100.7% and 97.1% and 104.4% and 93.2%
same,Relative tumor volume,[9],586.9% and 487.4% and 508.8% and 376.4% and 414.0% and 411.7% and 522.2% and 562.3% and 323.9% and 342.2% and 332.9% and 385.0% and 391.8% and 264.6%
same,"Absolute body weight, Median",[10],25.6 g
same,"Relative body weight, Median",[10],101.4%
same,"Absolute tumor volume: (a*b*b)/2, Median",[11],541.3 mm3
same,"Relative tumor volume, Median",[11],605.0%
same,Absolute body weight,[12],25.1 g and 30.7 g and 24.8 g and 24.6 g and 24.4 g and 26.1 g and 31.2 g and 30.4 g and 26.8 g and 22.7 g
same,Relative body weight,[12],98.8% and 107.3% and 101.2% and 100.4% and 101.7% and 104.0% and 104.7% and 96.5% and 107.2% and 96.2%
same,Relative tumor volume,[12],964.1% and 811.9% and 593.5% and 515.7% and 743.1% and 697.3% and 1076.6% and 1151.3% and 503.3% and 616.5% and 626.8% and 523.7% and 733.4% and 523.3%
same,"Absolute body weight, Median",[13],25.7 g
same,"Relative body weight, Median",[13],102.7%
same,"Absolute tumor volume: (a*b*b)/2, Median",[14],789.5 mm3
same,"Relative tumor volume, Median",[14],900.4%
same,Absolute body weight,[15],24.8 g and 30.3 g and 25.1 g and 25.0 g and 24.7 g and 26.2 g and 31.9 g and 31.1 g and 26.4 g and 22.7 g
same,Relative body weight,[15],97.6% and 105.9% and 102.4% and 102.0% and 102.9% and 104.4% and 107.0% and 98.7% and 105.6% and 96.2%
same,Relative tumor volume,[15],1372.2% and 1073.6% and 869.4% and 770.2% and 1242.1% and 1093.2% and 1915.9% and 1727.1% and 932.7% and 931.4% and 937.2% and 831.6% and 856.0% and 746.4%
same,"Absolute body weight, Median",[16],26.9 g
same,"Relative body weight, Median",[16],108.0%
same,"Absolute tumor volume: (a*b*b)/2, Median",[17],928.6 mm3
same,"Relative tumor volume, Median",[17],1023.2%
same,Absolute body weight,[18],25.4 g and 31.4 g and 25.8 g and 26.3 g and 26.1 g and 28.3 g and 33.2 g and 32.4 g and 27.4 g and 23.1 g
same,Relative body weight,[18],100.0% and 109.8% and 105.3% and 107.3% and 108.8% and 112.7% and 111.4% and 102.9% and 109.6% and 97.9%
same,Relative tumor volume,[18],1795.5% and 1109.8% and 1056.9% and 872.2% and 1346.4% and 1155.4% and 2275.4% and 1830.4% and 1070.4% and 1264.0% and 971.2% and 860.0% and 980.4% and 989.5%
same,Absolute tumor volume: (a*b*b)/2,"H327-2, LXFA 1041/9N4 Lung, adeno, 100 mg/kg/day po Days 0-20, study day 0, listed as G-026887, 100 mg/kg/day",47.6 mm3 and 100.9 mm3 and 90.8 mm3 (2×) and 111.6 mm3 and 68.8 mm3 and 57.6 mm3 and 62.5 mm3 and 84.7 mm3 and 50.6 mm3 and 210.8 mm3 and 117.2 mm3 and 139.4 mm3
same,Absolute tumor volume: (a*b*b)/2,"H327-2, LXFA 1041/9N4 Lung, adeno, 100 mg/kg/day po Days 0-20, study day 3, listed as G-026887, 100 mg/kg/day",92.3 mm3 and 210.8 mm3 and 140.4 mm3 and 209.5 mm3 and 139.3 mm3 and 90.8 mm3 and 68.8 mm3 and 145.4 mm3 and 117.0 mm3 and 98.3 mm3 and 292.8 mm3 and 201.6 mm3 and 249.4 mm3
same,Absolute tumor volume: (a*b*b)/2,"H327-2, LXFA 1041/9N4 Lung, adeno, 100 mg/kg/day po Days 0-20, study day 7, listed as G-026887, 100 mg/kg/day",215.1 mm3 and 332.8 mm3 and 272.8 mm3 and 291.2 mm3 and 258.8 mm3 and 147.9 mm3 and 212.5 mm3 and 294.4 mm3 and 197.0 mm3 and 126.0 mm3 and 470.6 mm3 and 344.4 mm3 and 392.9 mm3
same,Absolute tumor volume: (a*b*b)/2,"H327-2, LXFA 1041/9N4 Lung, adeno, 100 mg/kg/day po Days 0-20, study day 10, listed as G-026887, 100 mg/kg/day",279.3 mm3 and 491.9 mm3 and 461.7 mm3 and 420.1 mm3 and 284.6 mm3 and 237.2 mm3 and 326.4 mm3 and 510.3 mm3 and 274.4 mm3 and 173.2 mm3 and 701.8 mm3 and 451.3 mm3 and 546.2 mm3
same,Absolute tumor volume: (a*b*b)/2,"H327-2, LXFA 1041/9N4 Lung, adeno, 100 mg/kg/day po Days 0-20, study day 14, listed as G-026887, 100 mg/kg/day",458.8 mm3 and 819.3 mm3 and 538.6 mm3 and 575.5 mm3 and 510.9 mm3 and 401.6 mm3 and 672.9 mm3 and 1044.8 mm3 and 426.3 mm3 and 312.1 mm3 and 1321.4 mm3 and 613.8 mm3 and 1022.5 mm3
same,Absolute tumor volume: (a*b*b)/2,"H327-2, LXFA 1041/9N4 Lung, adeno, 100 mg/kg/day po Days 0-20, study day 17, listed as G-026887, 100 mg/kg/day",653.0 mm3 and 1083.4 mm3 and 789.0 mm3 and 859.6 mm3 and 853.9 mm3 and 629.7 mm3 and 1197.5 mm3 and 1567.4 mm3 and 790.0 mm3 and 471.5 mm3 and 1975.9 mm3 and 974.7 mm3 and 1193.5 mm3
same,Absolute tumor volume: (a*b*b)/2,"H327-2, LXFA 1041/9N4 Lung, adeno, 100 mg/kg/day po Days 0-20, study day 20, listed as G-026887, 100 mg/kg/day",854.4 mm3 and 1120.0 mm3 and 959.2 mm3 and 973.4 mm3 and 925.7 mm3 and 665.5 mm3 and 1422.1 mm3 and 1661.1 mm3 and 906.6 mm3 and 639.9 mm3 and 2047.5 mm3 and 1008.0 mm3 and 1366.9 mm3
same,Survival time,"H327-5, LXFA 1041/9N4, 100 mg/kg/day po Day 0",>0 days
same,"Absolute body weight, Median",[19],25.6 g
same,"Absolute tumor volume: (a*b*b)/2, Median",[19],248.1 mm3
same,"Relative body weight, Median",[19],100.0%
same,"Relative tumor volume, Median",[19],100.0%
same,Relative body weight,"H327-5, LXFA 1041/9N4, 100 mg/kg/day po Day 0, study day 0",100.0%
same,Absolute body weight,[20],26.3 g and 23.5 g and 24.9 g and 31.1 g and 20.8 g and 27.4 g
same,Absolute tumor volume: (a*b*b)/2,[20],256.0 mm3 and 219.0 mm3 and 423.2 mm3 and 441.1 mm3 and 166.5 mm3 and 240.1 mm3
same,Survival time,"H327-6, LXFA 1041/9N4, 100 mg/kg/day po Day 0",>0 days
same,"Absolute body weight, Median",[21],27.2 g
same,"Absolute tumor volume: (a*b*b)/2, Median",[21],267.7 mm3
same,Absolute body weight,[22],27.9 g and 27.2 g and 25.2 g
same,Absolute tumor volume: (a*b*b)/2,[22],409.1 mm3 and 250.5 mm3 and 267.7 mm3
